Where two headings read alike, the source gives them in different places.
Tests used:
Type in all cases: biochemical
factor XIa = target: T1, factor XIa (Homo sapiens, UniProt P03951); assay: Chromogenic substrate hydrolysis assay, factor XIa inhibition (S-2366)
T1 construct: antithrombin, factor Xa and factor XIa were from Haematologic Technologies; purchased Haematologic Technologies (Essex Junction, VT); host or cells: human plasma
Experimental: For factor XIa inhibition studies, 85 μL of buffer (50 mM Tris-HCl, 150 mM NaCl, 0.1% PEG 8000, 0.02% Tween 80, pH 7.4) was added to each well, followed by 7 μL of 15.3 nM enzyme and 3 μL of sulfated coumarin (3.75–500 μM final concentration) and incubated for 10 min at 37 °C. After the incubation period, 5 μL of 6.9 mM S-2366 was added to each well simultaneously and allowed to react for 300 sec at 37 °C. For factor Xa assay, 180 μL of buffer (20 mM Tris-HCl, 100 mM NaCl, 2.5 mM CaCl2, 0.1% PEG 8000, 0.02% Tween 80, pH 7.4) was added to each well followed by 5 μL of 43.5 nM enzyme, 10 μL of sulfated coumarin (0.002–250 μM final concentration). After a 10 min incubation, 5 μL of 5 mM Spectrozyme FXa was added to each well simultaneously and allowed to react for 300 seconds at 37 °C. The slopes generated from each experiment were used to calculate the fractional residual activity (Y) at each concentration of the inhibitor, and analyzed using logistic equation 1, in which YM is the maximum efficacy, Y0 is minimum efficacy and HS is the Hill slope.

[1] = system: recombinant human thrombins; assay: Inhibition of recombinant thrombins (wild type and exosite 2 mutants, summary statements)
Experimental: (§1) Chromogenic substrate hydrolysis assay was used to measure potency of inhibition, as previously reported. The assay was performed using Flexstation III (Molecular Devices, Sunnyvale, CA) by monitoring substrate hydrolysis at 405 nm. For thrombin and its mutants, 180 μL of buffer (20 mM Tris-HCl, 100 mM NaCl, 2.5 mM CaCl2, 0.1% (polyethylene glycol) PEG 8000, pH 7.4) was added to each well followed by 5 μL of 240 nM thrombin and 10 μL of sulfated coumarin in DMSO to give 0.002 to 250 μM final concentration (or 10 μL of DMSO alone). After incubation for 10 min at 25 °C, 5 μL of 2 mM Spectrozyme TH was added to each well simultaneously and allowed to react for 60 seconds at 25 °C while simultaneously monitoring the reaction to obtain the rate of increase in A405. Identical experimental conditions were used for reactions in the presence of antithrombin, except for 100 nM of antithrombin added prior to the addition of the substrate.

thrombin mutant K235A = target: T2, thrombin mutant K235A (Homo sapiens, UniProt P00734, K610A); assay: Inhibition of thrombin mutant K235A; conditions: pH 7.4, 25 °C
T2 construct: a group of thrombin mutants containing replacement of either Arg or Lys present in exosite 2 to Ala
Experimental: as §1

thrombin = thrombin (Homo sapiens, UniProt P00734); assay: Thrombin inhibition in the presence of exosite 1 (HirP) and exosite 2 (UFH) ligands; design: 6 nM plasma α-thrombin; purchased Haematologic Technologies (Essex Junction, VT)
Experimental: Thrombin inhibition by 3g was examined in the presence of either HirP (exosite 1 ligand) or UFH (exosite 2 ligand). 3g was prepared in DMSO (0.010–50 μM) and thrombin (4–8 nM) were incubated at 25 °C with HirP (0–187 nM) or UFH (0–22.8 μM) in buffer (20 mM Tris-HCl, 100 mM NaCl, 2.5 mM CaCl2, 0.1% PEG 8000, pH 7.4). After 10 min, thrombin activity was measured using Spectrozyme TH hydrolysis assay, as described above. The slopes obtained (in triplicate) were fitted using equation 1 to calculate IC50,app, ∆Y, and HS. The IC50,app at each concentration of the competitor was also calculated using the Dixon-Webb relationship (equation 3) from the known affinities (Kcomp) of the competitor.

T1 sequence (P03951 388-625 limits assumed): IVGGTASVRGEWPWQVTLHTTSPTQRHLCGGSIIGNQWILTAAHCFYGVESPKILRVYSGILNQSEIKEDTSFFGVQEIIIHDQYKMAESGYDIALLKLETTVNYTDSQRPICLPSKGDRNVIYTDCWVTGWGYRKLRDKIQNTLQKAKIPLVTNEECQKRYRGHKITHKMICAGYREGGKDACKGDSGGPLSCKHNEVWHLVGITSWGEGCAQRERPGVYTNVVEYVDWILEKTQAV
T1 sequence (P03951 19-387 limits assumed): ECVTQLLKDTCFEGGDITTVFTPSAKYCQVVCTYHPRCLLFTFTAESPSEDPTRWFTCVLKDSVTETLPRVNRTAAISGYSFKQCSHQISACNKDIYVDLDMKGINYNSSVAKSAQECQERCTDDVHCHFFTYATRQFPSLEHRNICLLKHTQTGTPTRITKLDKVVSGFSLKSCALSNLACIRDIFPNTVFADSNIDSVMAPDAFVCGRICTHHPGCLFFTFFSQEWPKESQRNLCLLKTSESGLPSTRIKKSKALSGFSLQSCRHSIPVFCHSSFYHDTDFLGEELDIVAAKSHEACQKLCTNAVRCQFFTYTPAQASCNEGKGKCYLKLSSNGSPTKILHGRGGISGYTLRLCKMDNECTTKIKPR

selectivity for thrombin in comparison to factor XIa (factor XIa): ~ 150 fold
IC50 (factor XIa; pH 7.4, 37 °C, read-out: IC50 against factor XIa): > 30000 nM
increase of IC50 in comparison to recombinant wild-type thrombin ([1]; mutants K236A, K235A, R173A and K169A): < 1.4 fold
HS (thrombin mutant K235A): 1.9
IC50 (thrombin mutant K235A): 471 ± 80 nM
ΔY (thrombin mutant K235A): 33 ± 3%
IC50 (thrombin; [HirP] 0 nM, Dixon-Webb relationship, read-out: IC50,predicted): 240 nM
HS (thrombin; [HirP] 0 nM, pH 7.4, 25 °C): 3.3
ΔY (thrombin; [HirP] 0 nM, pH 7.4, 25 °C): 52 ± 2%
IC50 (thrombin; [HirP] 0 nM, pH 7.4, 25 °C, read-out: IC50,app): 220 ± 20 nM
IC50 (thrombin; [HirP] 25 nM, Dixon-Webb relationship, read-out: IC50,predicted): 450 nM
HS (thrombin; [HirP] 25 nM, pH 7.4, 25 °C): 2.4
ΔY (thrombin; [HirP] 25 nM, pH 7.4, 25 °C): 58 ± 1%
IC50 (thrombin; [HirP] 25 nM, pH 7.4, 25 °C, read-out: IC50,app): 330 ± 20 nM
IC50 (thrombin; [HirP] 187 nM, Dixon-Webb relationship, read-out: IC50,predicted): 670 nM
HS (thrombin; [HirP] 187 nM, pH 7.4, 25 °C): 2.0
ΔY (thrombin; [HirP] 187 nM, pH 7.4, 25 °C): 59 ± 6%
IC50 (thrombin; [HirP] 187 nM, pH 7.4, 25 °C, read-out: IC50,app): 330 ± 60 nM
IC50 (thrombin; [UFH] 0 μM, Dixon-Webb relationship, read-out: IC50,predicted): 170 nM
HS (thrombin; [UFH] 0 μM, pH 7.4, 25 °C): 1.3
ΔY (thrombin; [UFH] 0 μM, pH 7.4, 25 °C): 56 ± 3%
IC50 (thrombin; [UFH] 0 μM, pH 7.4, 25 °C, read-out: IC50,app): 170 ± 20 nM
IC50 (thrombin; [UFH] 11.4 μM, Dixon-Webb relationship, read-out: IC50,predicted): 290 nM
HS (thrombin; [UFH] 11.4 μM, pH 7.4, 25 °C): 1.7
ΔY (thrombin; [UFH] 11.4 μM, pH 7.4, 25 °C): 66 ± 5%
IC50 (thrombin; [UFH] 11.4 μM, pH 7.4, 25 °C, read-out: IC50,app): 290 ± 30 nM
IC50 (thrombin; [UFH] 22.8 μM, Dixon-Webb relationship, read-out: IC50,predicted): 450 nM
HS (thrombin; [UFH] 22.8 μM, pH 7.4, 25 °C): 3.7
ΔY (thrombin; [UFH] 22.8 μM, pH 7.4, 25 °C): 59 ± 3%
IC50 (thrombin; [UFH] 22.8 μM, pH 7.4, 25 °C, read-out: IC50,app): 580 ± 30 nM
increase of IC50 in the presence of HirP (thrombin; exosite 1 ligand HirP): 50%
SMILES: O=c1oc2cc(OCCCCn3cc(COc4ccc(-c5c(-c6ccccc6)c6cc(Cl)cc(Cl)c6oc5=O)cc4)nn3)ccc2c(-c2ccccc2)c1-c1ccc(OS(=O)(=O)O)cc1 [3g]
maximal inhibition efficacies ([1]; range over all recombinant thrombins studied): 28 to 64%
